Assay results reported in patent US20220249617A1, “CYCLODEXTRIN BASED INJECTABLE COFORMULATIONS OF SGLT2 INHIBITORS AND INCRETIN PEPTIDES” (MEDIMMUNE LIMITED, priority 2019, published 2022).
Values after ≈ are worked out from the molar mass of the structure shown.

Experiments:
DIO mice = conditions: repeat injections; cited from earlier work
[1] = biological target: T1, human recombinant GLP-1 receptor (Homo sapiens, UniProt P43220); assay: In vitro potency assay, cAMP response element luciferase reporter in CHO cells; type: cell-based; conditions: MEDI0382 in buffer, in cyclodextrin, and co-formulated with DPZ
T1 construct: expressed in transfected cells; host or cells: CHO-K1
Experimental: (§1) Briefly, cells were plated at 20,000 cells per well in 96-well white microtiter plates (Corning, USA) and incubated with serially diluted peptide samples for 4 hours prior to lysis and measurement of cAMP dependent luciferase activity using Steady-Glo luciferase substrate (Promega, USA). Plates were read on a SpectraMax Paradigm plate reader (Molecular Devices, USA), and 10-point concentration-response curves were generated in triplicate. Results were expressed as the relative potency of the test sample compared to a reference ligand by calculating the ratio of the reference and sample EC50 values from a 4-PL fit following a test for parallelism using SoftMax Pro software (Molecular Devices, USA), and the reported data was the mean of two independent assays. Curves were fitted using nonlinear regression analysis in GraphPad Prism software 6.03 (GraphPad, USA).
(§2) Although HPβCD enhances the physical stability of the peptide, the loss of alpha-helix could have a dramatic impact on the potency of the peptide. […] The in vitro potency was assessed on CHO cells over-expressing human recombinant GLP-1 or glucagon receptors, and the activity was reported as EC50 values after measurement of cAMP accumulation.

[2] = biological target: T2, human recombinant glucagon receptor (Homo sapiens, UniProt P47871); assay: as above; type: cell-based; conditions: MEDI0382 in buffer, in cyclodextrin, and co-formulated with DPZ
T2 construct: expressed in transfected cells; host or cells: CHO-K1
Experimental: as §1, §2

non-human primates = conditions: repeat injections; cited from earlier work
[3] = system: overweight and obese patients with type 2 diabetes; conditions: cited from earlier work
[4] = Pharmacokinetic study after subcutaneous injection in rats; type: in vivo; conditions: DPZ 0.5 mg/kg
Experimental: For the PK study, MEDI0382 alone in buffer was prepared at 0.5 mg/mL in 50 mM Na Phosphate buffer pH 7.8+1.85% propylene glycol (PG) (J. T. Baker).
The cyclodextrin vehicle used for the PK study was 7% w/v HPβCD in 50 mM Na Phosphate buffer pH 7.8+0.5% v PG. The PG was added to adjust the osmolarity of the formulations to 260 mOsm. […] In parallel, MEDT0382 alone in buffer was prepared at 0.5 mg/mL in 50 mM NaP buffer pH 7.8+1.85% v/v PG. The formulations were then diluted to 1/10 with their corresponding vehicle.
Three animals per group were included, and serial blood sampling for PK evaluation occurred at 0.5, 1, 2, 4, 7, and 24 hr post dose.

physchem = assay: physchem
Experimental: Various HPβCD (Kleptose HPB, Roquette) solutions at increasing concentrations were prepared in water ranging from 5% to 20% (w/v). Briefly, HPβCD was weighed in a volumetric flask and purified water was added up to 80% (v/v) of final volume. The flask was mixed until full solubilisation and made up to final volume with purified water. […] Each concentration was done in duplicate. The formulations were left under magnetic stirring for 21 h 40 min. Each sample was then transferred to a 1.5 mL eppendorf and centrifuged at 13,000 rpm for 10 min. Then 200 μL was taken from the supernatant and centrifuged again in a 1.5 mL eppendorf for 30 min at 13,000 rpm. The samples were finally diluted in buffer A (95% HPLC water/5% ACN+0.03% TFA), and the concentration was measured by UPLC against a calibration curve validated with quality controls.

[5] = oral administration; cited from earlier work
[6] = target 17 mg/mL DPZ; formulation containing cyclodextrin (HPβCD); visual observation
Experimental: The appropriate aqueous vehicle was added onto the powder to achieve a final concentration of 17 mg/mL, vortex mixed, and sonicated. The pass/fail criteria for the formulation was determined through visual observation.
The screening assay was therefore designed to target a concentration of 17 mg/mL, corresponding to a […] dose in 600 μL dose volume. […] The excipients screened included PEG 400, PG, DSPE-PEG 2000, Glycerol, Kolliphor 188, HPβCD, and BSA. […] Only the formulation containing cyclodextrin was successful and therefore taken forward for further evaluation as a potential co-formulation vehicle.

[7] = cited from earlier work

T1 sequence (P43220 24-463): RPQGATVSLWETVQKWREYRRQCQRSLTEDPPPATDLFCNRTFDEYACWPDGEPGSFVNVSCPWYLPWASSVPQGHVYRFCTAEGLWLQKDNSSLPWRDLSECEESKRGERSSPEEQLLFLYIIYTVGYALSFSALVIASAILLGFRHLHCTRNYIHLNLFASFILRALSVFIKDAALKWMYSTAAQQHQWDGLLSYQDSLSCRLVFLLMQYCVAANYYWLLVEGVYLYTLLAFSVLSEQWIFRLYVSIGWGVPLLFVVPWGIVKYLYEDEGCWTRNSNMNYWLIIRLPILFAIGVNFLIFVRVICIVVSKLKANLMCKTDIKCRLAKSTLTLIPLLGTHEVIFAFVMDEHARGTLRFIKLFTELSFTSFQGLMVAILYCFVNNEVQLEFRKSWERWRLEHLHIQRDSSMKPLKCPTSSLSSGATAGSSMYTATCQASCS
T2 sequence (P47871 26-477): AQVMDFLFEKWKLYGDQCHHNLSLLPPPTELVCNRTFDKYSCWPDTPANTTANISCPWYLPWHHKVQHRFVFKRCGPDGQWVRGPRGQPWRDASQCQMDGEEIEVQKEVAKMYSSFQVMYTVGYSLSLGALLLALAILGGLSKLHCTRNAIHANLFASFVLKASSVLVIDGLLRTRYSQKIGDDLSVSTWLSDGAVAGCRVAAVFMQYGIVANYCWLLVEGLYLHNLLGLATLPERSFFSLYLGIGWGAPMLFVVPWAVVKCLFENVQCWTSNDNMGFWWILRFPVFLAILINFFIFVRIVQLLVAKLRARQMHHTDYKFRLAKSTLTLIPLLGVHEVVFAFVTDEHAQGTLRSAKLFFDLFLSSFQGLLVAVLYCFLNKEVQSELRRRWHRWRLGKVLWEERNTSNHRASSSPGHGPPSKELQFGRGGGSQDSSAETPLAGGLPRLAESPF

For `CCCCCCCCCCCCCCCC(=O)N[C@@H](CCC(=O)NCCCC[C@H](NC(=O)[C@H](CC(=O)O)NC(=O)[C@H](CO)NC(=O)[C@@H](NC(=O)[C@H](Cc1ccccc1)NC(=O)[C@@H](NC(=O)CNC(=O)[C@H](CCC(N)=O)NC(=O)[C@H](CO)NC(=O)[C@@H](N)Cc1c[nH]cn1)[C@@H](C)O)[C@@H](C)O)C(=O)N[C@@H](CO)C(=O)N[C@@H](CCC(=O)O)C(=O)N[C@@H](Cc1ccc(O)cc1)C(=O)N[C@@H](CC(C)C)C(=O)N[C@@H](CC(=O)O)C(=O)N[C@@H](CO)C(=O)N[C@@H](CCC(=O)O)C(=O)N[C@@H](CCCNC(=N)N)C(=O)N[C@@H](C)C(=O)N[C@@H](CCCNC(=N)N)C(=O)N[C@@H](CC(=O)O)C(=O)N[C@@H](Cc1ccccc1)C(=O)N[C@H](C(=O)N[C@@H](C)C(=O)N[C@@H](Cc1c[nH]c2ccccc12)C(=O)N[C@@H](CC(C)C)C(=O)N[C@@H](CCC(=O)O)C(=O)N[C@@H](C)C(=O)NCC(=O)NCC(=O)O)C(C)C)C(=O)O` [MEDI0382], the “effect on weight and glucose” value (DIO mice) is given as “marked weight loss and robust glucose control”, the “EC50 (cAMP accumulation), change between formulations” value [1] is given as “no change of EC50” and the “EC50 (cAMP accumulation), change between formulations” value [2] is given as “no change of EC50”. The “effect on weight and glucose” value (non-human primates) was “marked weight loss and robust glucose control” and the clinical efficacy [3] was “glucose, weight and liver fat lowering efficacy”.
For `CCOc1ccc(Cc2cc([C@@H]3O[C@H](CO)[C@@H](O)[C@H](O)[C@H]3O)ccc2Cl)cc1` [DPZ, dapagliflozin], the “PK of DPZ in the presence of MEDI0382” value [4] was “unchanged”, the “amount of HPβCD required to increase the solubility up to 17 mg/mL” value (physchem) was 5.5 % (w/v) and the “solubility change with increasing HPβCD concentration” value (physchem) was “linearly increased”. The “stoichiometry of inclusion complex (phase solubility)” value (physchem) was 1:1, the solubility at 21.67 h (physchem; water, thermodynamic from solid) was 1600 µg/mL (≈ 3.91 mM) and the absolute bioavailability [5] was 78%. The “Solubility screen result (pass/fail)” value [6] was “successful”.
For `OC[C@H]1O[C@@H](c2ccc(Cl)c(Cc3ccc(O[C@H]4CCOC4)cc3)c2)[C@H](O)[C@@H](O)[C@@H]1O` [EPZ, empagliflozin], the “solubility change with increasing HPβCD concentration” value (physchem) was “linear solubility increase”.
In the case of glucagon, the “pKa of N-terminal His alpha-amino group” value [7] is given as 7.6 and the “pKa of N-terminal His imidazole group” value [7] is given as 7.4.
